Measurements reported in US9549555B2, “Macrocyclic picolinamide compounds with fungicidal activity” (DOW AGROSCIENCES LLC, priority 2013, dated 2017).
Where two headings read alike, the source gives them in different places.

Tests used:
Assay type in all cases: in vivo
Rhyncosporium secalis = assay: Barley scald (RHYNSE), percent disease control; details: 24 h, 1 Day Protectant, read-out: Disease control RHYNSE 1DP
Procedure: Technical grades of materials were dissolved in acetone, which were then mixed with nine volumes of water containing 110 ppm Triton X-100. The fungicide solutions were applied onto wheat seedlings using an automated booth sprayer to run-off. All sprayed plants were allowed to air dry prior to further handling. All fungicides were evaluated using the aforementioned method for their activity vs. all target diseases. Wheat leaf blotch and brown rust activity were also evaluated using track spray applications, in which case the fungicides were formulated as EC formulations, containing 0.1% Trycol 5941 in the spray solutions. Wheat plants (variety Yuma) were grown from seed in a greenhouse in 50% mineral soil/50% soil-less Metro mix until the first leaf was fully emerged, with 7-10 seedlings per pot. These plants were inoculated with an aqueous spore suspension of Septoria tritici either prior to or after fungicide treatments. After inoculation the plants were kept in 100% relative humidity (one day in a dark dew chamber followed by two to three days in a lighted dew chamber at 20° C.) to permit spores to germinate and infect the leaf. The plants were then transferred to a greenhouse set at 20° C. for disease to develop. When disease symptoms were fully expressed on the 1st leaves of untreated plants, infection levels were assessed on a scale of 0 to 100 percent disease severity. Percent disease control was calculated using the ratio of disease severity on treated plants relative to untreated plants. Evaluation of Fungicidal Activity: Barley Scald (Rhyncosporium secalis; Bayer Code […]) Barley seedlings (variety Harrington) were propagated in soil-less Metro mix, with each pot having 8 to 12 plants, and used in the test when first leaf was fully emerged. Test plants were inoculated by an aqueous spore suspension of Rhyncosporium secalis 24 hr after fungicide treatments. After inoculation the plants were kept in a dew room at 20° C. with 100% relative humidity for 48 hr. The plants were then transferred to a greenhouse set at 20° C. for disease to develop. Fungicide formulation, application and disease assessment on the sprayed leaves followed the procedures as described in the Example A.

Puccinia triticina = assay: Wheat brown rust (PUCCRT), percent disease control on wheat seedlings; details: rate 100 ppm
[1] = system: Mycosphaerella graminicola; Anamorph: Septoria tritici; assay: Leaf blotch of wheat (SEPTTR), percent disease control on wheat seedlings; details: Zymoseptoria tritici, rate 100 ppm
Procedure: Evaluation of Fungicidal Activity: Leaf Blotch of Wheat (Mycosphaerella graminicola; Anamorph: Septoria tritici; Bayer Code […]) Technical grades of materials were dissolved in acetone, which were then mixed with nine volumes of water containing 110 ppm Triton X-100. The fungicide solutions were applied onto wheat seedlings using an automated booth sprayer to run-off. All sprayed plants were allowed to air dry prior to further handling. All fungicides were evaluated using the aforementioned method for their activity vs. all target diseases. Wheat leaf blotch and brown rust activity were also evaluated using track spray applications, in which case the fungicides were formulated as EC formulations, containing 0.1% Trycol 5941 in the spray solutions. Wheat plants (variety Yuma) were grown from seed in a greenhouse in 50% mineral soil/50% soil-less Metro mix until the first leaf was fully emerged, with 7-10 seedlings per pot. These plants were inoculated with an aqueous spore suspension of Septoria tritici either prior to or after fungicide treatments. […] When disease symptoms were fully expressed on the 1st leaves of untreated plants, infection levels were assessed on a scale of 0 to 100 percent disease severity. Percent disease control was calculated using the ratio of disease severity on treated plants relative to untreated plants.

With `CCCC[C@H]1[C@H](C)OC(=O)[C@@H](NC(=O)c2nccc(OC)c2OCOC(C)=O)CCC[C@@H]1Oc1ccccc1` [Compound 33] the pest or weed control at 100 ppm (Rhyncosporium secalis) was > 70%.
For `CCCO[C@H]1CCC[C@H](NC(=O)c2nccc(OC)c2OCOC(C)=O)C(=O)O[C@@H](C)[C@@H]1CCC(C)C` [Compound 25, ((2-(((3S,7S,8S,9S)-8-isopentyl-9-methyl-2-oxo-7-propoxyoxonan-3-yl)carbamoyl)-4-methoxypyridin-3-yl)oxy)methyl acetate], the pest or weed control at 100 ppm (Rhyncosporium secalis) was > 70%.
With `COc1ccnc(C(=O)N[C@H]2CCC[C@H](Oc3ccccc3)[C@@H](CCC(C)C)[C@H](C)OC2=O)c1OCOC(C)=O` [Compound 40] the pest or weed control at 100 ppm (Rhyncosporium secalis) was > 70%.
In the case of `COc1ccnc(C(=O)N[C@H]2CCC[C@H](OCC(C)C)[C@@H](Cc3ccccc3)[C@H](C)OC2=O)c1O` [Compound 62], the pest or weed control at 100 ppm (Puccinia triticina; 24 h, 1 Day Protectant, read-out: Disease control PUCCRT 1DP) is reported as > 70%, the pest or weed control at 100 ppm (Puccinia triticina; 72 h, 3 Day Curative, read-out: Disease control PUCCRT 3DC) is reported as > 70% and the pest or weed control at 100 ppm ([1]; 24 h, 1 Day Protectant, read-out: Disease control SEPTTR 1DP) is reported as > 70%. The pest or weed control at 100 ppm ([1]; 72 h, 3 Day Curative, read-out: Disease control SEPTTR 3DC) was < 70%.
In the case of `COc1ccnc(C(=O)N[C@H]2CCC[C@H](Oc3ccccc3)[C@@H](CCC(C)C)[C@H](C)OC2=O)c1OC(C)=O` [Compound 36], the pest or weed control at 100 ppm (Rhyncosporium secalis) is reported as > 70%.
`CCCO[C@H]1CCC[C@H](NC(=O)c2nccc(OC)c2OC(C)=O)C(=O)O[C@@H](C)[C@@H]1CCC(C)C` [Compound 74, 2-((3S,7S,8S,9S)-8-isopentyl-9-methyl-2-oxo-7-propoxyoxonan-3-yl)carbamoyl)-4-methoxypyridin-3-yl acetate] was tested, and the pest or weed control at 100 ppm (Rhyncosporium secalis) was > 70%.
`COc1ccnc(C(=O)N[C@H]2CCC[C@H](OCC3CC3)[C@@H](Cc3ccc(F)cc3)[C@H](C)OC2=O)c1OCOC(C)=O` [Compound 61] was tested, and the pest or weed control at 100 ppm (Rhyncosporium secalis) was > 70%.
`CCCC[C@H]1[C@H](C)OC(=O)[C@@H](NC(=O)c2nccc(OC)c2OCOC(C)=O)CCC[C@@H]1OCC1CC1` [Compound 73] was tested, and the pest or weed control at 100 ppm (Rhyncosporium secalis) was > 70%.
In the case of `CCCO[C@H]1CCC[C@H](NC(=O)c2nccc(OC)c2OC(C)=O)C(=O)O[C@@H](C)[C@@H]1Cc1ccccc1` [Compound 70], the pest or weed control at 100 ppm (Rhyncosporium secalis) is reported as > 70%.
